From patent US20210324441A1, “CHARACTERIZATION OF MICROORGANISMS VIA MALDI-TOF” (BIOMÉRIEUX, priority 2014, published 2021)

How the values were obtained:
K. pneumoniae = assay: MIC of ampicillin for the bacterial strain; assay type: cell-based; settings: strain 1, K. pneumoniae, resistant
E. coli = assay: MIC of ampicillin for the bacterial strain; assay type: cell-based
[1] = Negative control without enzyme: ampicillin dried on MALDI plate, MALDI-TOF detection; assay type: physicochemical; settings: water with 0.76 mM zinc, no enzyme, ambient temperature, one hour
Description: In the present experiment, an analysis zone of a MALDI plate (VITEK® MS disposable slides TO-430) was treated with a beta-lactam antibiotic and tested in order to evaluate the capacity of the antibiotics to be cleaved by a beta-lactamase. Ampicillin was used as the model for the antibiotic beta-lactam. The experiment was carried out by implementing the steps below: • 2 μL of a solution of ampicillin in a concentration of 10 mg/mL in water was deposited in the form of a drop onto an analysis zone of the MALDI plate. The plate was incubated at 37° C., until the drop had dried out completely. • 2 μL of a recombinant beta-lactamase (β-lactamase from Pseudomonas aeruginosa, Sigma-Aldrich batch L6170-550UN. CAS: 9073-60-3). • 2 μL of recombinant β-lactamase at a concentration of 1 mg/mL in water was used diluted in water supplemented with zinc in the form of zinc sulfate (0.76 millimoles (mM)) to promote enzymatic activity, was deposited onto the dry analysis zone carrying ampicillin. […]

MIC of ampicillin (minimum inhibiting concentration of the strain) (K. pneumoniae): 32
MIC of ampicillin (minimum inhibiting concentration of the strain) (E. coli; strain 2, E. coli, resistant, penicillinase): >128
MIC of ampicillin (minimum inhibiting concentration of the strain) (E. coli; strain 3, E. coli, resistant, TEM β-lactamase): >128
MIC of ampicillin (minimum inhibiting concentration of the strain) (E. coli; strain 4, E. coli ATCC 25922, sensitive, no β-lactamase): 4
spontaneous hydrolysis on the plate [1]: A little spontaneous hydrolysis
Structure (SMILES): CC1(C)S[C@@H]2[C@H](NC(=O)[C@H](N)c3ccccc3)C(=O)N2[C@H]1C(=O)O [ampicillin]
